Assay results as given in PubChem BioAssay (NCI).
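All cell lines were grown in 96-well plates and treated with compound for 48 hours. GI50 marks 50% less growth. TGI is the concentration that stops growth completely.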

Columns and labels:
Experiment in all cases: NCI anticancer screen, dose series, 48 h
DU-145 prostate = system: DU-145 prostate
HCC-2998 colon = system: HCC-2998 colon
NCI/ADR-RES ovarian = system: NCI/ADR-RES ovarian
786-0 renal = system: 786-0 renal
CAKI-1 renal = system: CAKI-1 renal
CCRF-CEM leukemia = system: CCRF-CEM leukemia
HCT-116 colon = system: HCT-116 colon
HCT-15 colon = system: HCT-15 colon
HL-60(TB) leukemia = system: HL-60(TB) leukemia
KM12 colon = system: KM12 colon
M14 melanoma = system: M14 melanoma
MDA-MB-435 = system: MDA-MB-435
NCI-H226 lung = system: NCI-H226 lung
NCI-H23 lung = system: NCI-H23 lung
NCI-H460 lung = system: NCI-H460 lung
NCI-H522 lung = system: NCI-H522 lung
OVCAR-4 ovarian = system: OVCAR-4 ovarian
OVCAR-8 ovarian = system: OVCAR-8 ovarian
PC-3 prostate = system: PC-3 prostate
RPMI-8226 leukemia = system: RPMI-8226 leukemia
SF-268 CNS = system: SF-268 CNS
SN12C renal = system: SN12C renal
SNB-19 CNS = system: SNB-19 CNS
SNB-75 CNS = system: SNB-75 CNS
SR leukemia = system: SR leukemia
SW-620 colon = system: SW-620 colon
T-47D breast = system: T-47D breast
U251 CNS = system: U251 CNS
A498 renal = system: A498 renal
A549 NSCLC = system: A549 NSCLC
ACHN renal = system: ACHN renal
COLO 205 colon = system: COLO 205 colon
EKVX NSCLC = system: EKVX NSCLC
HOP-62 NSCLC = system: HOP-62 NSCLC
HOP-92 NSCLC = system: HOP-92 NSCLC
HS 578T breast = system: HS 578T breast
IGROV1 ovarian = system: IGROV1 ovarian
K-562 leukemia = system: K-562 leukemia
LOX IMVI melanoma = system: LOX IMVI melanoma
MALME-3M melanoma = system: MALME-3M melanoma
MCF7 breast = system: MCF7 breast
MDA-MB-231 breast = system: MDA-MB-231 breast
MOLT-4 leukemia = system: MOLT-4 leukemia
OVCAR-3 ovarian = system: OVCAR-3 ovarian
OVCAR-5 ovarian = system: OVCAR-5 ovarian
RXF 393 renal = system: RXF 393 renal
SF-295 CNS = system: SF-295 CNS
SF-539 CNS = system: SF-539 CNS
SK-MEL-28 melanoma = system: SK-MEL-28 melanoma
SK-MEL-5 melanoma = system: SK-MEL-5 melanoma
SK-OV-3 ovarian = system: SK-OV-3 ovarian
UACC-257 melanoma = system: UACC-257 melanoma
UACC-62 melanoma = system: UACC-62 melanoma
UO-31 renal = system: UO-31 renal

## C[C@H](C(=O)N[C@@H](Cc1ccc(-c2ccccc2)cc1)C(=O)NC1CC(C)(C)NC(C)(C)C1)c1ccc(-c2ccccc2)c(F)c1
DU-145 prostate
  GI50: 0.377 µM
  TGI: 1.54 µM
HCC-2998 colon
  GI50: 0.813 µM
  TGI: > 100 µM
NCI/ADR-RES ovarian
  GI50: 1.88 µM
  TGI: 4.47 µM

## COc1ncc(-c2ccc3ncnc(Nc4cccc(Cl)c4)c3c2)cc1NS(=O)(=O)CCN1CCOCC1
786-0 renal
  GI50: 0.298 µM
  TGI: > 100 µM
CAKI-1 renal
  GI50: 0.345 µM
  TGI: > 100 µM
CCRF-CEM leukemia
  GI50: 0.799 µM
  TGI: > 100 µM
DU-145 prostate
  GI50: 0.297 µM
  TGI: > 100 µM
HCT-116 colon
  GI50: 1.49 µM
  TGI: > 100 µM
HCT-15 colon
  GI50: 0.448 µM
  TGI: > 100 µM
HL-60(TB) leukemia
  GI50: 0.38 µM
  TGI: > 100 µM
KM12 colon
  GI50: 1.81 µM
  TGI: > 100 µM
M14 melanoma
  GI50: 0.755 µM
  TGI: > 100 µM
MDA-MB-435
  GI50: 0.534 µM
  TGI: > 100 µM
NCI-H226 lung
  GI50: 0.659 µM
  TGI: > 100 µM
NCI-H23 lung
  GI50: 0.768 µM
  TGI: > 100 µM
NCI-H460 lung
  GI50: 0.393 µM
  TGI: > 100 µM
NCI-H522 lung
  GI50: 0.402 µM
  TGI: 8.6 µM
OVCAR-4 ovarian
  GI50: 1.14 µM
  TGI: > 100 µM
OVCAR-8 ovarian
  GI50: 0.7 µM
  TGI: > 100 µM
PC-3 prostate
  GI50: 0.326 µM
  TGI: > 100 µM
RPMI-8226 leukemia
  GI50: 1.23 µM
  TGI: > 100 µM
SF-268 CNS
  GI50: 0.382 µM
  TGI: > 100 µM
SN12C renal
  GI50: 0.293 µM
  TGI: > 100 µM
SNB-19 CNS
  GI50: 0.945 µM
  TGI: > 100 µM
SNB-75 CNS
  GI50: < 0.01 µM
  TGI: 0.739 µM
SR leukemia
  GI50: 0.653 µM
  TGI: > 100 µM
SW-620 colon
  GI50: 1.25 µM
  TGI: > 100 µM
T-47D breast
  GI50: < 0.01 µM
  TGI: 0.6 µM
U251 CNS
  GI50: 0.824 µM
  TGI: > 100 µM

## Cc1ccc(NC(=O)NCCCOc2ccc(N3C(N)=NC(N)=NC3(C)C)cc2Cl)cc1S(=O)(=O)F
786-0 renal
  GI50: 7.36 µM
  TGI: > 100 µM
A498 renal
  GI50: 75.5 µM
  TGI: > 100 µM
A549 NSCLC
  GI50: 2.83 µM
  TGI: > 100 µM
ACHN renal
  GI50: 49.3 µM
  TGI: > 100 µM
CAKI-1 renal
  GI50: 70 µM
  TGI: > 100 µM
CCRF-CEM leukemia
  GI50: 9.69 µM
  TGI: > 100 µM
COLO 205 colon
  GI50: 13.6 µM
  TGI: 95.7 µM
DU-145 prostate
  GI50: 6.04 µM
  TGI: > 100 µM
EKVX NSCLC
  GI50: 10.9 µM
  TGI: > 100 µM
HCC-2998 colon
  GI50: 21.5 µM
  TGI: > 100 µM
HCT-116 colon
  GI50: 2.22 µM
  TGI: > 100 µM
HCT-15 colon
  GI50: > 100 µM
  TGI: > 100 µM
HL-60(TB) leukemia
  GI50: 0.775 µM
  TGI: > 100 µM
HOP-62 NSCLC
  GI50: 9.46 µM
  TGI: > 100 µM
HOP-92 NSCLC
  GI50: 18.9 µM
  TGI: 75.1 µM
HS 578T breast
  GI50: 16.7 µM
  TGI: > 100 µM
IGROV1 ovarian
  GI50: 0.525 µM
  TGI: > 100 µM
K-562 leukemia
  GI50: 0.677 µM
  TGI: > 100 µM
KM12 colon
  GI50: 6.29 µM
  TGI: > 100 µM
LOX IMVI melanoma
  GI50: 4.19 µM
  TGI: > 100 µM
M14 melanoma
  GI50: 7.81 µM
  TGI: > 100 µM
MALME-3M melanoma
  GI50: 12 µM
  TGI: 81 µM
MCF7 breast
  GI50: 4.93 µM
  TGI: > 100 µM
MDA-MB-231 breast
  GI50: 11.4 µM
  TGI: > 100 µM
MDA-MB-435
  GI50: 4.46 µM
  TGI: > 100 µM
MOLT-4 leukemia
  GI50: 9.26 µM
  TGI: > 100 µM
NCI-H226 lung
  GI50: 58.1 µM
  TGI: > 100 µM
NCI-H23 lung
  GI50: 5 µM
  TGI: > 100 µM
NCI-H460 lung
  GI50: 1.68 µM
  TGI: > 100 µM
NCI/ADR-RES ovarian
  GI50: > 100 µM
  TGI: > 100 µM
OVCAR-3 ovarian
  GI50: 8.6 µM
  TGI: > 100 µM
OVCAR-4 ovarian
  GI50: 15.1 µM
  TGI: > 100 µM
OVCAR-5 ovarian
  GI50: 6.44 µM
  TGI: > 100 µM
OVCAR-8 ovarian
  GI50: 7.85 µM
  TGI: > 100 µM
PC-3 prostate
  GI50: 1.49 µM
  TGI: > 100 µM
RPMI-8226 leukemia
  GI50: 60.7 µM
  TGI: > 100 µM
RXF 393 renal
  GI50: 98.3 µM
  TGI: > 100 µM
SF-268 CNS
  GI50: 0.916 µM
  TGI: > 100 µM
SF-295 CNS
  GI50: 26.5 µM
  TGI: > 100 µM
SF-539 CNS
  GI50: 8.84 µM
  TGI: 81.2 µM
SK-MEL-28 melanoma
  GI50: 11.6 µM
  TGI: > 100 µM
SK-MEL-5 melanoma
  GI50: 1.88 µM
  TGI: 21.5 µM
SK-OV-3 ovarian
  GI50: 43.6 µM
  TGI: > 100 µM
SNB-19 CNS
  GI50: 6.04 µM
  TGI: > 100 µM
SNB-75 CNS
  GI50: 8.62 µM
  TGI: 51.4 µM
SR leukemia
  GI50: 0.724 µM
  TGI: > 100 µM
SW-620 colon
  GI50: 2.03 µM
  TGI: > 100 µM
T-47D breast
  GI50: 19.8 µM
  TGI: > 100 µM
U251 CNS
  GI50: 4.04 µM
  TGI: > 100 µM
UACC-257 melanoma
  GI50: 10.9 µM
  TGI: > 100 µM
UACC-62 melanoma
  GI50: 4.05 µM
  TGI: > 100 µM
UO-31 renal
  GI50: > 100 µM
  TGI: > 100 µM
